Test results as given in ChEMBL document CHEMBL2321867, “Synthesis and structure-activity relationships of 2-hydrazinyladenosine derivatives as A(2A) adenosine receptor ligands” (Bioorg Med Chem, 2013).
pEC50, pKi: −log10 of the molar value.

Legend:
Adenosine receptor A1 [1] = target: T1, Adenosine receptor A1 (Homo sapiens, UniProt P30542); assay: Displacement of [3H]CCPA from human recombinant adenosine A1 receptor expressed in CHO cells 90 mins by liquid scintillation counting analysis; format: cell-based
T1 sequence (P30542 whole entry): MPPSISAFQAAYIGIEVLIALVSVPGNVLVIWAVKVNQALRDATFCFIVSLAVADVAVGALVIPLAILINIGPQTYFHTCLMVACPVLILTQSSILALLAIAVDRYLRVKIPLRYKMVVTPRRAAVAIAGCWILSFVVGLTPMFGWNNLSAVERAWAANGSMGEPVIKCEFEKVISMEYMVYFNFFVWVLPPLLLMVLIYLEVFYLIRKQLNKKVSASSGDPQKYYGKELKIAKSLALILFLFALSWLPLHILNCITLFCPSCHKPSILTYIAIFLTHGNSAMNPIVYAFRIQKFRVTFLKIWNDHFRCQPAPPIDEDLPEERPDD

Adenosine receptor A2a [2] = target: Adenosine receptor A2a (Rattus norvegicus, UniProt P30543); assay: Displacement of [3H]CGS21680 from adenosine A2A receptor in rat brain striatal membrane after 60 mins by liquid scintillation counting analysis; format: cell membranes
[3] = target: Adenosine receptor A2a (Rattus norvegicus) (UniProt P30543); assay: Displacement of [3H]CGS21680 from adenosine A2A receptor in rat brain striatal membrane at 1 uM after 60 mins by liquid scintillation counting analysis; format: cell membranes
Adenosine receptor A3 [4] = target: T2, Adenosine receptor A3 (Homo sapiens, UniProt P0DMS8); assay: Displacement of [3H]NECA from human recombinant adenosine A3 receptor expressed in CHO cells after 180 mins by liquid scintillation counting analysis; format: cell-based
T2 sequence (P0DMS8 whole entry): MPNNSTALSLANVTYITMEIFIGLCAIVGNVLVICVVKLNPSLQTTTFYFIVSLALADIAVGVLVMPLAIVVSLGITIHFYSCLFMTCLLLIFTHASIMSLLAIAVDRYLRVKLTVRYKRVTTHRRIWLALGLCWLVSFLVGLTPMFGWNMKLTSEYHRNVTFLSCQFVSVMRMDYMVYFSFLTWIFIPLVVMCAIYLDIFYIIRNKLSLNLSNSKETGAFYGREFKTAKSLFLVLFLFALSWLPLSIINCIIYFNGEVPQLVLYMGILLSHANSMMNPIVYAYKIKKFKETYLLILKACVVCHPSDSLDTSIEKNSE

Adenosine receptor A1 [5] = target: T1, Adenosine receptor A1
[6] = target: T3, Adenosine receptor A2b (Homo sapiens) (UniProt P29275); assay: Displacement of [3H]PSB-603 from human recombinant adenosine A2B receptor expressed in CHO cells at 10 uM after 75 mins by liquid scintillation counting analysis; format: cell-based
T3 sequence (whole entry): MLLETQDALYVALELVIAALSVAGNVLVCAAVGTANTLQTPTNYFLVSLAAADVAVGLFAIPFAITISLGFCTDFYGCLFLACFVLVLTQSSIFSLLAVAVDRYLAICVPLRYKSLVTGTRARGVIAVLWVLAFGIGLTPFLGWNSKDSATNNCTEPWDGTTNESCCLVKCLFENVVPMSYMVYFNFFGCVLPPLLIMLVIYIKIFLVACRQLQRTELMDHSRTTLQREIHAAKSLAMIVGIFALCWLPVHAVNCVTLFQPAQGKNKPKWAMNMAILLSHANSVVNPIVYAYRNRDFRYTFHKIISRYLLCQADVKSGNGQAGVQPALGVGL

Adenosine receptor A3 [7] = target: T2, Adenosine receptor A3; assay: Displacement of [3H]NECA from human recombinant adenosine A3 receptor
Adenosine receptor A1 [8] = target: T4, Adenosine receptor A1 (Rattus norvegicus, UniProt P25099); assay: Displacement of [3H]CCPA from adenosine A1 receptor in rat brain cortical membrane after 90 mins by liquid scintillation counting analysis; format: cell membranes
T4 sequence (P25099 whole entry): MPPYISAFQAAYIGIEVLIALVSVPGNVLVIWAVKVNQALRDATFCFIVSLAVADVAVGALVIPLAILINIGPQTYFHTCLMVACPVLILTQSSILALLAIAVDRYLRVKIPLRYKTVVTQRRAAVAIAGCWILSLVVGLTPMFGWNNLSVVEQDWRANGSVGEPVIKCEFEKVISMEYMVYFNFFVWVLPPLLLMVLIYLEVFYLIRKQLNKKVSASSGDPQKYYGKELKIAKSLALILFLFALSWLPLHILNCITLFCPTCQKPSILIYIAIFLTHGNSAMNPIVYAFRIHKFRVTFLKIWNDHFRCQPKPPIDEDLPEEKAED

[9] = target: T5, Adenosine receptor A1 (Rattus norvegicus) (UniProt P25099); assay: Displacement of [3H]CCPA from adenosine A1 receptor in rat brain cortical membrane at 1 uM after 90 mins by liquid scintillation counting analysis; format: cell membranes
T5 sequence (whole entry): T4 sequence (P25099 whole entry)

[10] = target: T6, Adenosine receptor A3 (Homo sapiens) (UniProt P0DMS8); assay: Displacement of [3H]NECA from human recombinant adenosine A3 receptor expressed in CHO cells at 1 uM after 180 mins by liquid scintillation counting analysis; format: cell-based
T6 sequence (whole entry): T2 sequence (P0DMS8 whole entry)

Adenosine receptor A2a [11] = target: Adenosine receptor A2a (Homo sapiens, UniProt P29274); assay: Agonist activity at human recombinant adenosine A2A receptor expressed in CHO cells assessed as [3H]cAMP accumulation after 15 mins by liquid scintillation counting; format: functional, cell-based
Adenosine receptor A2a (Homo sapiens, UniProt P29274), sequence (P29274 whole entry): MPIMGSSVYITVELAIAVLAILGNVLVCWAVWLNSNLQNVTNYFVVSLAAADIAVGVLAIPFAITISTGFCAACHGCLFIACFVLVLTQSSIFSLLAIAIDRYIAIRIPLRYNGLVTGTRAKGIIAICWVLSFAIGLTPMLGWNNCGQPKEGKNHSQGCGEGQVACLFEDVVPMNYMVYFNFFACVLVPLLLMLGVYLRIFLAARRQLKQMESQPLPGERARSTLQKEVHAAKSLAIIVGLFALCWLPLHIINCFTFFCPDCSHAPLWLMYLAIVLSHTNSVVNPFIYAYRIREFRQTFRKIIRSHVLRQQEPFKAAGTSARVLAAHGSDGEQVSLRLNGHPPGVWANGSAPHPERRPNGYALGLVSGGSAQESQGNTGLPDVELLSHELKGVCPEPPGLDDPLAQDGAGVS

Adenosine receptor A2a (Rattus norvegicus), sequence (P30543 whole entry): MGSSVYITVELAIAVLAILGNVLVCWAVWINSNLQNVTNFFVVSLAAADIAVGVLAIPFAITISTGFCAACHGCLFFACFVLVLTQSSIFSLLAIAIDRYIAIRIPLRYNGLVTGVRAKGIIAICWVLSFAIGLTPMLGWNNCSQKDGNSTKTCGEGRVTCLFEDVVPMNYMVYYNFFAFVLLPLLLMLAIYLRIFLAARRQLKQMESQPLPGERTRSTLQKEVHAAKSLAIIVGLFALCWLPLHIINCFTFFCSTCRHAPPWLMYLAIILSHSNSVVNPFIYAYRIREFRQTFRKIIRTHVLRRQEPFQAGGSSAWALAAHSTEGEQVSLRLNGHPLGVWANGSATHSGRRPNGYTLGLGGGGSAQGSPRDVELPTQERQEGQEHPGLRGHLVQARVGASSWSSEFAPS
Adenosine receptor A2a (Rattus norvegicus, UniProt P30543), sequence (P30543 whole entry): as above

With COc1ccc(/C=N/Nc2nc(N)c3ncn([C@@H]4O[C@H](CO)[C@@H](O)[C@H]4O)c3n2)cc1 as the compound, how does the pKi (Adenosine receptor A1 [1]) read?
The pKi was 6.14.

And the pKi (Adenosine receptor A2a [2])?
Its pKi is 7.92.

How did the inhibition [3] turn out when CN(/N=C/[C@H](O)[C@H](O)[C@@H](O)[C@@H](O)CO)c1nc(N)c2ncn([C@@H]3O[C@H](CO)[C@@H](O)[C@H]3O)c2n1 was run?
The inhibition was 2%.

What about the pKi (Adenosine receptor A2a [2]) of the same compound?
The pKi was < 6.00.

Which inhibition [3] does the source give for CN(/N=C(\CO)[C@H](O)[C@@H](O)[C@@H](O)CO)c1nc(N)c2ncn([C@@H]3O[C@H](CO)[C@@H](O)[C@H]3O)c2n1 here?
Its inhibition is 25%.

And the pKi (Adenosine receptor A2a [2])?
The pKi was < 6.00.

CN(/N=C/[C@H](O)[C@@H](O)[C@@H](O)[C@H](O)CO)c1nc(N)c2ncn([C@@H]3O[C@H](CO)[C@@H](O)[C@H]3O)c2n1 was tested. Which inhibition [3] did it give?
The inhibition was 25%.

And the pKi (Adenosine receptor A2a [2])?
Its pKi is < 6.00.

Nc1nc(N/N=C/c2ccc(Cl)cc2)nc2c1ncn2[C@@H]1O[C@H](CO)[C@@H](O)[C@H]1O was tested. Which pKi (Adenosine receptor A2a [2]) did it give?
Its pKi is 7.79.

For CN(/N=C/[C@@H](O)[C@@H](O)[C@@H](O)CO)c1nc(N)c2ncn([C@@H]3O[C@H](CO)[C@@H](O)[C@H]3O)c2n1, which inhibition [3] is on record?
The inhibition was 7%.

And the pKi (Adenosine receptor A2a [2])?
The pKi was < 6.00.

What does the source list for Nc1nc(N/N=C/[C@H](O)[C@H](O)[C@@H](O)[C@@H](O)CO)nc2c1ncn2[C@@H]1O[C@H](CO)[C@@H](O)[C@H]1O?
inhibition [3]: 33%; pKi (Adenosine receptor A2a [2]): < 6.00

For Nc1nc(N/N=C(\CO)[C@H](O)[C@@H](O)[C@@H](O)CO)nc2c1ncn2[C@@H]1O[C@H](CO)[C@@H](O)[C@H]1O, which inhibition [3] is on record?
Its inhibition is 34%.

What about the pKi (Adenosine receptor A2a [2]) of the same compound?
The pKi was < 6.00.

How did the pKi (Adenosine receptor A2a [2]) turn out when Nc1nc(N/N=C/c2ccc(Cl)cc2O)nc2c1ncn2[C@@H]1O[C@H](CO)[C@@H](O)[C@H]1O was run?
The pKi was 7.04.

With Nc1nc(N/N=C/[C@@H](O)[C@H](O)[C@@H](O)[C@@H](O)CO)nc2c1ncn2[C@@H]1O[C@H](CO)[C@@H](O)[C@H]1O as the compound, how does the inhibition [3] read?
Its inhibition is 42%.

And the pKi (Adenosine receptor A2a [2])?
Its pKi is < 6.00.

What does the source list for Nc1nc(N/N=C/C2CCCCC2)nc2c1ncn2[C@@H]1O[C@H](CO)[C@@H](O)[C@H]1O [BINODENOSON]?
pKi (Adenosine receptor A3 [4]): 7.28; pKi (Adenosine receptor A1 [1]): 6.77; pKi (Adenosine receptor A1 [5]): 4.32; pKi (Adenosine receptor A2a [2]): 7.59; inhibition [6]: 17%; pKi (Adenosine receptor A3 [7]): 6.04; pKi (Adenosine receptor A1 [8]): 7.15

CN(NC(=S)Nc1ccccc1)c1nc(N)c2ncn([C@@H]3O[C@H](CO)[C@@H](O)[C@H]3O)c2n1 was tested. Which pKi (Adenosine receptor A3 [4]) did it give?
Its pKi is < 6.00.

And the inhibition [9]?
The inhibition was 1%.

And the inhibition [3]?
Its inhibition is 16%.

And the pKi (Adenosine receptor A2a [2])?
The pKi was < 6.00.

What about the inhibition [10] of the same compound?
The inhibition was 36%.

And the pKi (Adenosine receptor A1 [8])?
The pKi was < 6.00.

Which inhibition [3] does the source give for CN(NC(=O)Nc1ccccc1)c1nc(N)c2ncn([C@@H]3O[C@H](CO)[C@@H](O)[C@H]3O)c2n1 here?
The inhibition was 11%.

And the pKi (Adenosine receptor A2a [2])?
Its pKi is < 6.00.

With Nc1nc(N/N=C/[C@@H](O)[C@H](O)[C@H](O)[C@@H](O)CO)nc2c1ncn2[C@@H]1O[C@H](CO)[C@@H](O)[C@H]1O as the compound, how does the pEC50 (Adenosine receptor A2a [11]) read?
The pEC50 was 5.84.

What about the pKi (Adenosine receptor A2a [2]) of the same compound?
The pKi was 6.48.

How did the pEC50 (Adenosine receptor A2a [11]) turn out when Nc1nc(N/N=C/c2ccc(Cl)c(Cl)c2)nc2c1ncn2[C@@H]1O[C@H](CO)[C@@H](O)[C@H]1O was run?
Its pEC50 is 5.78.

And the pKi (Adenosine receptor A2a [2])?
The pKi was 7.61.

CN(/N=C/[C@@H](O)[C@H](O)[C@@H](O)[C@@H](O)CO)c1nc(N)c2ncn([C@@H]3O[C@H](CO)[C@@H](O)[C@H]3O)c2n1 was tested. Which inhibition [3] did it give?
The inhibition was 31%.

What about the pKi (Adenosine receptor A2a [2]) of the same compound?
Its pKi is < 6.00.

Which results are given for Nc1nc(N/N=C/[C@@H](O)[C@@H](O)[C@@H](O)CO)nc2c1ncn2[C@@H]1O[C@H](CO)[C@@H](O)[C@H]1O?
inhibition [3]: 33%; pKi (Adenosine receptor A2a [2]): < 6.00
